Source: patent US20060166989A1, “2-naphthamide derivatives” (Bayer Healthcare AG, priority 2002, published 2006)

Legend:
[1] = biological target: T1, IP receptor (Homo sapiens, UniProt P43119); experiment: Iloprost-induced cAMP production assay in HEL cells (Assay 2); assay type: cell-based; settings: read-out: Activity grade assay 2
T1 construct: HEL cells were collected with centrifugation and washed with cAMP assay buffer; host or cells: HEL 92.1.7 human erythroleukemia cells
Method: [Iloprost-Induced cAMP Production Assay in HEL Cells] (Assay 2)
HEL cells were collected with centrifugation and washed with cAMP assay buffer (CAB: Hank's balanced salt solution, 17 mM Hepes, 0.1% bovine serum albumin, 1 mM IBMX, 0.4% DMSO, and 1 mM L-ascorbic acid sodium salt (pH 7.4)). Cells were suspended at the density of 2.5×10^5 cells/ml in CAB, and twenty thousand cells in 80 μl aliquot of cell suspension were put in a well of 96 well plate (Falcon). Then, 10 μl of compound solution diluted with 1% DMSO in CAB or buffer alone was added. The plate was incubated at 37° C. for 30 min. Then, another 10 μl containing 100 nM iloprost in CAB or buffer alone was added and further incubated at 37° C. for 30 min. cAMP content in the well was measured by a cAMP ELISA kit (Applied Biosystems, USA).
Results of Iloprost-induced cAMP production assay (Assay2) are shown in Examples and tables of the Examples below. For practical reasons, the compounds are grouped in three classes of activity as follows: A(=or<)0.1μM<B(=or<)1μM<C

T1 sequence (P43119 whole entry): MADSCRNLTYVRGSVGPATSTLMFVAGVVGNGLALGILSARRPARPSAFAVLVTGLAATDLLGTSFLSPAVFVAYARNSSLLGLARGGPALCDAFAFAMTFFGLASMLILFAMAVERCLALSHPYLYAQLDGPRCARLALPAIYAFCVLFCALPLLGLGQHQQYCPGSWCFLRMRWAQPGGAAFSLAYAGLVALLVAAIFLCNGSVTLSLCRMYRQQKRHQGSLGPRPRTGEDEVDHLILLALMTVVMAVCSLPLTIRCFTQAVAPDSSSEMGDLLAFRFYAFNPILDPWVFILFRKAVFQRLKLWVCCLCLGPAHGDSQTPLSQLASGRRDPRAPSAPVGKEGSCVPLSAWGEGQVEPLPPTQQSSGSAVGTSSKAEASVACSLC

| IC50 [1] [nM] | melting point | Compound |
| --- | --- | --- |
| < 100 | 230 °C | O=C(N[C@@H](Cc1ccccc1)C(=O)O)c1ccc2cc(OCc3ccccc3)ccc2c1 (single isomer, unassigned) [Example 1-1, N-(6-Benzyloxy-2-naphthoyl)phenylalanine] |
| > 1000 | 196 to 198 °C | O=C(NC(CO)C(=O)O)c1ccc2cc(OCc3ccccc3)ccc2c1 (centres unmarked) [Example 1-2] |
| < 100 | 212 to 214 °C (dec.) | O=C(NC(Cc1ccc(C(F)(F)F)cc1)C(=O)O)c1ccc2cc(OCc3ccccc3)ccc2c1 (centres unmarked) [Example 1-3] |
| 100 to 1000 | 225 to 227 °C | O=C(NC(Cc1ccccc1)C(=O)O)c1ccc2cc(OCCOc3ccccc3)ccc2c1 (centres unmarked) [Example 1-4] |
| < 100 | 197 °C | O=C(NC(Cc1ccccc1)C(=O)O)c1ccc2cc(OCc3ccc(F)cc3)ccc2c1 (centres unmarked) [Example 1-5] |
| < 100 | 197 to 199 °C | O=C(NC(Cc1ccccc1)C(=O)O)c1ccc2cc(OCc3cccc(F)c3)ccc2c1 (centres unmarked) [Example 1-6] |
| < 100 | 180 to 182 °C | O=C(NC(Cc1ccccc1)C(=O)O)c1ccc2cc(OCc3ccccc3F)ccc2c1 (centres unmarked) [Example 1-7] |
| < 100 | 217 °C | O=C(NC(Cc1ccccc1)C(=O)O)c1ccc2cc(OCc3cccnc3)ccc2c1 (centres unmarked) [Example 1-8] |
| 100 to 1000 | 214 °C | O=C(NC(Cc1ccccc1)C(=O)O)c1ccc2cc(OCc3ccccn3)ccc2c1 (centres unmarked) [Example 1-9] |
| < 100 | 185 °C | O=C(NC(Cc1ccccc1)C(=O)O)c1ccc2cc(OCc3ccc(F)c(F)c3)ccc2c1 (centres unmarked) [Example 1-10] |
| < 100 | 168 to 169 °C | O=C(NC(Cc1ccccc1)C(=O)O)c1ccc2cc(OCCn3cccc3)ccc2c1 (centres unmarked) [Example 1-11] |
| < 100 | 220 to 221 °C | O=C(NC(Cc1ccccc1)C(=O)O)c1ccc2cc(OCc3ccncc3)ccc2c1 (centres unmarked) [Example 1-12] |
| 100 to 1000 | – | O=C(NC(Cc1ccccc1C(F)(F)F)C(=O)O)c1ccc2cc(OCc3ccccc3)ccc2c1 (centres unmarked) [Example 1-13] |
| < 100 | – | O=C(NC(Cc1cccc(C(F)(F)F)c1)C(=O)O)c1ccc2cc(OCc3ccccc3)ccc2c1 (centres unmarked) [Example 1-14] |
| < 100 | – | O=C(NC(Cc1c[nH]c2ccccc12)C(=O)O)c1ccc2cc(OCc3ccccc3)ccc2c1 (centres unmarked) [Example 1-15] |
| < 100 | – | COc1ccc(CC(NC(=O)c2ccc3cc(OCc4ccccc4)ccc3c2)C(=O)O)cc1 (centres unmarked) [Example 1-16] |
| < 100 | – | COc1cc(CC(NC(=O)c2ccc3cc(OCc4ccccc4)ccc3c2)C(=O)O)ccc1O (centres unmarked) [Example 1-17] |
| < 100 | – | O=C(NC(C(=O)O)C(O)c1ccccc1)c1ccc2cc(OCc3ccccc3)ccc2c1 (centres unmarked) [Example 1-18] |
| < 100 | 144 °C | O=C(NC(Cc1ccccc1)C(=O)O)c1ccc2cc(OCCc3ccccc3)ccc2c1 (centres unmarked) [Example 1-19] |
| < 100 | 202 to 204 °C | O=C(NC(Cc1ccc(Cl)cc1)C(=O)O)c1ccc2cc(OCc3ccccc3)ccc2c1 (centres unmarked) [Example 1-20] |
| < 100 | 188 to 191 °C | O=C(NC(Cc1cccc(F)c1)C(=O)O)c1ccc2cc(OCc3ccccc3)ccc2c1 (centres unmarked) [Example 1-21] |
| < 100 | 214 to 216 °C | O=C(NC(Cc1ccc(F)cc1)C(=O)O)c1ccc2cc(OCc3ccccc3)ccc2c1 (centres unmarked) [Example 1-22] |
| < 100 | 215 °C | O=C(NC(Cc1ccccc1)C(=O)O)c1ccc2cc(OCc3ccccc3Cl)ccc2c1 (centres unmarked) [Example 1-23] |

| IC50 [1] [nM] | melting point | Compound |
| --- | --- | --- |
| < 100 | 187 °C | O=C(NC(Cc1ccccc1)C(=O)O)c1ccc2cc(OCc3cccc(Cl)c3)ccc2c1 (centres unmarked) [Example 1-24] |
| 100 to 1000 | 226 °C | O=C(NC(Cc1ccccc1)C(=O)O)c1ccc2cc(OCc3ccc(Cl)cc3)ccc2c1 (centres unmarked) [Example 1-25] |
| 100 to 1000 | 167 °C | O=C(NC(Cc1ccccc1)C(=O)O)c1ccc2cc(OCc3ccccc3C(F)(F)F)ccc2c1 (centres unmarked) [Example 1-26] |
| > 1000 | 158 °C | O=C(NC(Cc1ccccc1)C(=O)O)c1ccc2cc(OCc3cccc(C(F)(F)F)c3)ccc2c1 (centres unmarked) [Example 1-27] |
| > 1000 | 224 °C | O=C(NC(Cc1ccccc1)C(=O)O)c1ccc2cc(OCc3ccc(C(F)(F)F)cc3)ccc2c1 (centres unmarked) [Example 1-28] |
| < 100 | 169 °C | COc1ccccc1COc1ccc2cc(C(=O)NC(Cc3ccccc3)C(=O)O)ccc2c1 (centres unmarked) [Example 1-29] |
| < 100 | 163 °C | COc1cccc(COc2ccc3cc(C(=O)NC(Cc4ccccc4)C(=O)O)ccc3c2)c1 (centres unmarked) [Example 1-30] |
| > 1000 | 188 °C | COc1ccc(COc2ccc3cc(C(=O)NC(Cc4ccccc4)C(=O)O)ccc3c2)cc1 (centres unmarked) [Example 1-31] |
| 100 to 1000 | 202 °C | O=C(NC(Cc1ccccc1)C(=O)O)c1ccc2cc(OCc3ccc(Cl)c(Cl)c3)ccc2c1 (centres unmarked) [Example 1-32] |
| < 100 | 211 °C | O=C(NC(Cc1ccccc1)C(=O)O)c1ccc2cc(OCc3cccc(Cl)c3Cl)ccc2c1 (centres unmarked) [Example 1-33] |
| < 100 | 180 °C | O=C(NC(Cc1ccccc1)C(=O)O)c1ccc2cc(OCc3cc(Cl)cc(Cl)c3)ccc2c1 (centres unmarked) [Example 1-34] |
| < 100 | 140 °C | COc1cc(COc2ccc3cc(C(=O)NC(Cc4ccccc4)C(=O)O)ccc3c2)cc(OC)c1 (centres unmarked) [Example 1-35] |
| 100 to 1000 | 157 °C | O=C(NC(Cc1ccccc1)C(=O)O)c1ccc2cc(OCc3cccc(OC(F)(F)F)c3)ccc2c1 (centres unmarked) [Example 1-36] |
| > 1000 | 158 °C | O=C(NC(Cc1ccccc1)C(=O)O)c1ccc2cc(OCc3ccccc3OC(F)(F)F)ccc2c1 (centres unmarked) [Example 1-37] |
| > 1000 | 161 °C | COc1cccc(COc2ccc3cc(C(=O)NC(Cc4ccccc4)C(=O)O)ccc3c2)c1OC (centres unmarked) [Example 1-38] |
| 100 to 1000 | 202 °C | Cc1c(COc2ccc3cc(C(=O)NC(Cc4ccccc4)C(=O)O)ccc3c2)cccc1[N+](=O)[O-] (centres unmarked) [Example 1-39] |
| 100 to 1000 | 210 °C | Cc1ccc(C)c(COc2ccc3cc(C(=O)NC(Cc4ccccc4)C(=O)O)ccc3c2)c1 (centres unmarked) [Example 1-40] |
| 100 to 1000 | 245 °C | O=C(NC(Cc1ccccc1)C(=O)O)c1ccc2cc(OCc3c(Cl)cccc3Cl)ccc2c1 (centres unmarked) [Example 1-41] |
| > 1000 | 202 °C | O=C(NC(Cc1ccccc1)C(=O)O)c1ccc2cc(OCc3ccc(Cl)cc3Cl)ccc2c1 (centres unmarked) [Example 1-42] |
| 100 to 1000 | 172 to 173 °C (dec.) | O=C(NC(Cc1ccccn1)C(=O)O)c1ccc2cc(OCc3ccccc3)ccc2c1 (centres unmarked) [Example 1-43] |
| < 100 | 200 to 202 °C | O=C(NC(Cc1cccs1)C(=O)O)c1ccc2cc(OCc3ccccc3)ccc2c1 (centres unmarked) [Example 1-44] |
| > 1000 | – | O=C(N[C@@H](Cc1ccccc1)C(=O)O)c1ccc2cc(OCc3ccccc3)ccc2c1 [Example 2-2, N-[6-(benzyloxy)-2-naphthoyl]-L-phenylalanine] |
